Our source for the melting point values is patent US6977262B2, “Dihydropyrazolopyridine compounds and pharmaceutical use thereof” (Mitsubishi Pharma Corporation, priority 2001, dated 2005).

The structures appear in SMILES notation.

The melting point is the temperature, or range, at which the solid turns liquid.

Turning to `CN(C)CCC1=C(C#N)C(c2cccc3nonc23)c2c[nH]nc2N1` (stereo not drawn) [Example 1019, 4-(2,1,3-Benzoxadiazol-4-yl)-5-cyano-4,7-dihydro-6-(2-(N,N-dimethylamino)ethyl)-2H-pyrazolo[3,4-b]pyridine], the melting point came to 215 °C. The same measure for `CCCC1=C(C#N)C(c2cccc([N+](=O)[O-])c2Cl)c2c[nH]nc2N1` (stereo not drawn) [Example 185, 4-(2-Chloro-3-nitrophenyl)-5-cyano-4,7-dihydro-6-propyl-2H-pyrazolo[3,4-b]pyridine]: 234 to 235 °C. For `CCCC1=C(C(=O)OCC)C(c2ccccc2OC2CCCC2)c2c[nH]nc2N1` (stereo not drawn) [Example 37, Ethyl 4-(2-cyclopentyloxyphenyl)-4,7-dihydro-6-propyl-2H-pyrazolo[3,4-b]pyridine-5-carboxylate] the value was 195 °C. The same measure for `CCCCOc1ccccc1C1C(C(=O)OCC)=C(CCC)Nc2n[nH]cc21` (stereo not drawn) [Example 36, Ethyl 4-(2-butoxyphenyl)-4,7-dihydro-6-propyl-2H-pyrazolo[3,4-b]pyridine-5-carboxylate]: 171 °C; for `CC(C)C1=C(C#N)C(c2cccc3nonc23)c2c[nH]nc2N1` (stereo not drawn) [Example 264, 4-(2,1,3-Benzoxadiazol-4-yl)-5-cyano-4,7-dihydro-6-isopropyl-2H-pyrazolo[3,4-b]pyridine]: 222 to 223 °C (dec.). In turn, `CCCC1=C(C#N)C(c2ccccc2Cl)c2cn(C(=O)Nc3ccccc3)nc2N1` (stereo not drawn) [Example 284, 4-(2-Chlorophenyl)-5-cyano-4,7-dihydro-2-phenylcarbamoyl-6-propyl-2H-pyrazolo[3,4-b]pyridine] gave a melting point of 167 to 171 °C.

Compound `COc1cccc(C2=C(C#N)C(c3cccc4nonc34)c3c[nH]nc3N2)c1` (stereo not drawn) [Example 160, 4-(2,1,3-Benzoxadiazol-4-yl)-5-cyano-4,7-dihydro-6-(3-methoxyphenyl)-2H-pyrazolo[3,4-b]pyridine] displayed a melting point of 198 °C. For `CCN1CCC(C2=C(C#N)C(c3cccc4nonc34)c3c[nH]nc3N2)CC1` (stereo not drawn) [Example 1033, 4-(2,1,3-Benzoxadiazol-4-yl)-5-cyano-4,7-dihydro-6-(1-ethylpiperidin-4-yl)-2H-pyrazolo[3,4-b]pyridine] the value was 231 °C.

Compound `CCCC1=C(C(=O)OCC)C(c2ccnc3ccccc23)c2c[nH]nc2N1` (stereo not drawn) [Example 74, Ethyl 4,7-dihydro-6-propyl-4-(quinolin-4-yl)-2H-pyrazolo[3,4-b]pyridine-5-carboxylate] showed a melting point of 198 °C. For `CCCC1=C(C(=O)OCC)C(c2cccc(Cl)c2)c2c[nH]nc2N1` (stereo not drawn) [Example 234, Ethyl 4-(3-chlorophenyl)-4,7-dihydro-6-propyl-2H-pyrazolo[3,4-b]pyridine-5-carboxylate] the value was 140 to 143 °C; for `CCCCc1[nH]nc2c1C(c1ccccc1Cl)C(C#N)=C(CCC)N2` (stereo not drawn) [Example 304, 3-Butyl-4-(2-chlorophenyl)-5-cyano-4,7-dihydro-6-propyl-2H-pyrazolo[3,4-b]pyridine], 212 °C. As to `N#CC1=C(c2ccccc2)Nc2n[nH]cc2C1c1cccc2nsnc12` (stereo not drawn) [Example 162, 4-(2,1,3-Benzothiadiazol-4-yl)-5-cyano-4,7-dihydro-6-phenyl-2H-pyrazolo[3,4-b]pyridine], the melting point is 258 °C. Turning to `CCOC(=O)C1=C(c2ccccc2)Nc2n[nH]cc2C1c1ccccc1OC` (stereo not drawn) [Example 92, Ethyl 4,7-dihydro-4-(2-methoxyphenyl)-6-phenyl-2H-pyrazolo[3,4-b]pyridine-5-carboxylate], the melting point was 195 °C. Take `N#CC1=C(C2=CCNCC2)Nc2n[nH]cc2C1c1cccc(C#N)c1Br` (stereo not drawn) [Example 1047, 4-(2-Bromo-3-cyanophenyl)-5-cyano-4,7-dihydro-6-(1,2,3,6-tetrahydropyridin-4-yl)-2H-pyrazolo[3,4-b]pyridine]: the melting point was determined as 226 °C. The same measure for `CCOC(=O)C1=C(c2ccc(OC)cc2)Nc2n[nH]cc2C1c1ccccc1Cl` (stereo not drawn) [Example 86, Ethyl 4-(2-chlorophenyl)-4,7-dihydro-6-(4-methoxyphenyl)-2H-pyrazolo[3,4-b]pyridine-5-carboxylate]: 211 °C; for `C=CCCC(=O)n1cc2c(n1)NC(CCC)=C(C#N)C2c1ccccc1Cl` (stereo not drawn) [Example 358, 4-(2-Chlorophenyl)-5-cyano-4,7-dihydro-2-(4-pentenoyl)-6-propyl-2H-pyrazolo[3,4-b]pyridine]: 176 to 177 °C. The same measure for `CC(C)C1=C(C#N)C(c2cccc(N3CCOCC3)c2)c2c[nH]nc2N1` (stereo not drawn) [Example 365, 5-Cyano-4,7-dihydro-4-(3-(morpholin-4-yl)phenyl)-6-isopropyl-2H-pyrazolo[3,4-b]pyridine]: 254 to 257 °C; for `CCCC1=C(C(=O)OCC)C(c2cc(F)ccc2F)c2c[nH]nc2N1` (stereo not drawn) [Example 49, Ethyl 4-(2,5-difluorophenyl)-4,7-dihydro-6-propyl-2H-pyrazolo[3,4-b]pyridine-5-carboxylate]: 168 to 169 °C. The same measure for `CCCC1=C(C(=O)OCC)C(c2cccs2)c2c[nH]nc2N1.O=C(O)/C=C\C(=O)O` (stereo not drawn) [Example 62, Ethyl 4,7-dihydro-6-propyl-4-(thiophen-2-yl)-2H-pyrazolo[3,4-b]pyridine-5-carboxylate maleate]: 129 to 131 °C; for `CCCC1=C(C(=O)OCC)C(c2cccc3c2OCC=C3)c2c[nH]nc2N1` (stereo not drawn) [Example 72, Ethyl 4-(2H-1-benzopyran-8-yl)-4,7-dihydro-6-propyl-2H-pyrazolo[3,4-b]pyridine-5-carboxylate]: 194 °C. `CCCC1=C(C(=O)OCC)C(c2cccc(Cl)c2C)c2c[nH]nc2N1` (stereo not drawn) [Example 111, Ethyl 4-(3-chloro-2-methylphenyl)-4,7-dihydro-6-propyl-2H-pyrazolo[3,4-b]pyridine-5-carboxylate]: the melting point came to 185 °C. For `CCC1=C(C#N)C(c2ccccc2OC)c2c[nH]nc2N1` (stereo not drawn) [Example 194, 5-Cyano-6-ethyl-4,7-dihydro-4-(2-methoxyphenyl)-2H-pyrazolo[3,4-b]pyridine] the value was 230 to 232 °C; for `CCCC1=C(C(=O)OCC)C(c2csc3ccccc23)c2c[nH]nc2N1` (stereo not drawn) [Example 75, Ethyl 4-(benzo[b]thiophen-3-yl)-4,7-dihydro-6-propyl-2H-pyrazolo[3,4-b]pyridine-5-carboxylate], 222 °C.

The compound `CCOC(=O)C1=C(C(F)(F)F)Nc2n[nH]cc2C1c1ccccc1` (stereo not drawn) [Example 12, Ethyl 4,7-dihydro-4-phenyl-6-trifluoromethyl-2H-pyrazolo[3,4-b]pyridine-5-carboxylate] had a melting point of 110 to 115 °C. The same measure for `CCCC1=C(C(=O)OCC)C(c2ccccc2CCC)c2cn[nH]c2N1` (stereo not drawn) [Example 101, Ethyl 4,7-dihydro-6-propyl-4-(2-propylphenyl)-1H-pyrazolo[3,4-b]pyridine-5-carboxylate]: 197 °C; for `N#CC1=C(C2CNCCO2)Nc2n[nH]cc2C1c1cccc(C#N)c1Br.O=C(O)C(F)(F)F` (stereo not drawn): 236 °C; for `CC(C)(C)C1=C(C#N)C(c2cccc(C#N)c2Br)c2c[nH]nc2N1` (stereo not drawn) [Example 319, 4-(2-Bromo-3-cyanophenyl)-6-t-butyl-5-cyano-4,7-dihydro-2H-pyrazolo[3,4-b]pyridine]: 251 °C.
